In publication PMC7139549, “TLD1433 Photosensitizer Inhibits Conjunctival Melanoma Cells in Zebrafish Ectopic and Orthotopic Tumour Models” (Cancers, 2020):

System: CRMM2 cells injected behind the eye (RO) of zebrafish embryos
Test: Zebrafish orthotopic CM tumour model, CRMM2
Assay type: in vivo, Zebrafish (Danio rerio)
Details: for PI (Fluorescence Intensity) / PI (Tumour Area) / Relative Tumour Burden as Measured by Fluorescence Intensity / Tumour Area: CRMM2, Orthotopic Model; for PI (Fluorescence Intensity) / PI (Tumour Area): 0 vs 114 J.cm^−2
Procedure: The zebrafish ectopic conjunctival melanoma tumour model has been described previously. In this model, around 200 fluorescent CM cells are injected into the Duct of Cuvier at 2 dpf, and then disseminate through the blood circulation and grow in the head and tail. To establish the orthotopic tumour model, around 100 red, (td)Tomato fluorescent CRMM1 or CRMM2 cells were injected RO at 2 dpf into tg(Fli:GFP/Casper), endothelial reporter transgenic zebrafish with green fluorescent vasculature and examined by fluorescent microscopy at day 1 and 4 after engraftment (Figure 6A). Tumour expansion at the injection site was measured as fluorescence intensity and tumour area.
For cancer cell injection, two days post-fertilization (dpf), dechorionated zebrafish embryos were anaesthetized with 0.003% tricaine (Sigma) and plated on a 10 cm Petri dish covered with 1.5% of solidified agarose. CRMM1 and CRMM2 cells were suspended in PBS containing 2% polyvinylpyrrolidone (PVP; Sigma-Aldrich) with a concentration of 50,000 cells/µL and loaded into borosilicate glass capillary needles (1 mm O.D. × 0.78 mm I.D.; Harvard Apparatus). In the ectopic model, 200 (td)Tomato fluorescent CM cells were injected into the Duct of Cuvier or at 2 dpf, which led to dissemination through the blood circulation and outgrowth in the head and tail. In orthotopic tumour model, 100 (td)Tomato fluorescent CRMM1 or CRMM2 cells were injected RO in 2 dpf embryos using a Pneumatic Picopump and a manipulator (WPI). After injection, the embryos were incubated in a 34 °C incubator. Images were acquired at 1-, 2- and 4-days post injection (dpi) with a Leica M165 FC stereo fluorescence microscope. Tumor growth was quantified by calculating the total fluorescence intensity and area with the ZF4 pixel counting program (Leiden). Each experiment was performed at least 3 times with a group size of >30 embryos.
Fluorescent CRMM1 and CRMM2 cells were injected at 2 dpf into the Duct of Cuvier (ectopic model) and behind the eye (orthotopic model) and TLD1433 was delivered by WA, IV and RO administration with or without a light treatment as described in 4.8. For the WA administration, the 4.6 nM TLD1433 solution was added to the tumour cells injected zebrafish at 2.5, 3.5, 4.5, 5.5 dpf and maintained for 12 h. At 3, 4, 5, 6 dpf, the fish water was refreshed, and after 1 h, embryos were exposed to green light for 90 min (21 mW/cm^2, 114 J/cm^2, 520 nm). For the IV and RO administration, 1 nL of 2.3 mM TLD1433 solution was injected via the dorsal vein or the RO site at 3, 4, 5, 6 dpf. After 1 h interval, the embryos were exposed to green light for 90 min (21 mW/cm^2, 114 J/cm^2, 520 nm). After treatment, the embryos images were acquired with a Leica M165 FC stereo fluorescence microscope. Tumor growth was quantified by calculating the total fluorescence intensity and area with the ZF4 pixel counting program (Leiden). Each experiment was performed at least 3 times with a group size of >30 embryos.

[1] = Intravenous (1 nL of 2.3 mM), Light Dose 0 J.cm^−2, vs control dark group (100%)
[2] = Intravenous (1 nL of 2.3 mM), Light Dose 114 J.cm^−2, vs control dark group (100%)
[3] = Water (4.6 nM), Light dose 0 J.cm^−2, vs control dark group (100%)
[4] = Water (4.6 nM), Light dose 114 J.cm^−2, vs control dark group (100%)
[5] = CRMM2, orthotopic model, RO 2.3 mM, green light 114 J.cm^−2

## Cc1ccnc(-c2cc(C)ccn2)c1.Cc1ccnc(-c2cc(C)ccn2)c1.[Cl-].[Cl-].[Ru+2].c1csc(-c2ccc(-c3ccc(-c4nc5c6cccnc6c6ncccc6c5[nH]4)s3)s2)c1 [TLD1433]
Intravenous (1 nL of 2.3 mM)
  PI (Fluorescence Intensity): 1.0
  PI (Tumour Area): 1.1
[1]
  Relative Tumour Burden as Measured by Fluorescence Intensity: 98%
  Tumour Area: 97%
[2]
  Relative Tumour Burden as Measured by Fluorescence Intensity: 95%
  Tumour Area: 93%
Retro orbital (1 nL of 2.3 mM)
  PI (Tumour Area): 3.4
Retro orbital (1 nL of 2.3 mM), Light dose 0 J.cm^−2, vs control dark group (100%)
  Tumour Area: 99%
Retro orbital (1 nL of 2.3 mM), Light dose 114 J.cm^−2, vs control dark group (100%)
  Tumour Area: 29%
Retro-orbital (1 nL of 2.3 mM)
  PI (Fluorescence Intensity): 2.2
Retro-orbital (1 nL of 2.3 mM), Light Dose 0 J.cm^−2, vs control dark group (100%)
  Relative Tumour Burden as Measured by Fluorescence Intensity: 100%
Retro-orbital (1 nL of 2.3 mM), Light Dose 114 J.cm^−2, vs control dark group (100%)
  Relative Tumour Burden as Measured by Fluorescence Intensity: 45%
Water (4.6 nM)
  PI (Fluorescence Intensity): 0.92
  PI (Tumour Area): 1.1
[3]
  Relative Tumour Burden as Measured by Fluorescence Intensity: 96%
  Tumour Area: 104%
[4]
  Relative Tumour Burden as Measured by Fluorescence Intensity: 104%
  Tumour Area: 95%
[5]
  diminished fluorescence intensity: 55%
  diminished tumour area: 71%
CRMM2, orthotopic model, WA at the MTD (4.6 nM), light 114 J.cm^−2
  effect on tumour burden (in words): did not inhibit tumour burden
